This is an account of results in patent US20230157302A1, “METHODS FOR […] MYCOTOXIN PRODUCTION” (Institut National de Recherche Pour L'Agriculture, …, priority 2020, published 2023).

“Also recorded” adds a separate entry of the source.

Test [1] deals with F. graminearum CBS 185.32. Type of test: cell-based, Fusarium graminearum.
Test [2] relates to F. graminearum CBS 185.32. Type of test: cell-based, Fusarium graminearum. The source holds these as a separate data set.
Test [3] has as its system Fusarium culmorum and Fusarium graminearum. As to conditions: cited from earlier work.

With “C(CH3)GNFLKRTC(CH3)IC(CH3)VKK [TickCore3-CH3-123]”, in test [1], the 15-ADON production result is recorded as “significantly less”; the DON production entry is “significantly less”; the “inhibition of TCTB mycotoxin production (DON and 15-ADON together)” value (“inhibition of TCTB mycotoxin production” below) is “little effect on the inhibitory effect affecting TCTB production”.
As to “C G N F L T R T C I C V K K (CGNFLTRTCICVKK) [TickCore3-K6T]”, the “fungal growth / dry fungal biomass (antifungal activity)” value (“fungal growth / dry fungal biomass” for short) in test [2] is reported as “no antifungal activity below the concentration at 50 μM”. In addition, the “inhibition of TCTB mycotoxin production” value in test [1] is listed as “reduction in the ability to inhibit TCTB production is particularly pronounced”.
“CGNFLKRTCIC(CH3)VKK [TickCore3-CH3-3 Ox]”: the “fungal growth / dry fungal biomass” value in test [2] is reported as “no effect on fungal growth at any of the concentrations tested”. In addition, in test [1], the 15-ADON production entry is on record as “significant increase” and the DON production entry was “significant increase”.
“C G N F L K R T C I C V T K (CGNFLKRTCICVTK) [TickCore3-K13T]”: the “fungal growth / dry fungal biomass” value in test [2] is given as “strong antifungal activity only at 50 μM”.
For “C G N F L K R T C I C V K K (CGNFLKRTCICVKK) [TickCore3, conserved linear gamma core moiety of the tick defensin DefMT3]”, the “fungal growth / dry fungal biomass” value in test [2] is listed as “significantly inhibited fungal growth at all the concentrations tested”. In addition, in test [1], the 15-ADON production result is “non-detectable levels; also recorded: residual levels”; the DON production result is reported as “non-detectable levels”; the “inhibition of TCTB mycotoxin production” value is on record as “inhibits the production of category B trichothecenes”.
With “DefMT6: tick defensin described in Tonk et al., 2015 (GFGCPLNQGACHNHCRSIKRRGGYCSGIIKQTCTCYRK; DefMT6) [reference compound]”, the “antibacterial and antifungal activity” value in test [3] is “antibacterial and antifungal activity”.
“C G N F L K T T C I C V K K (CGNFLKTTCICVKK) [TickCore3-R7T]”: the “fungal growth / dry fungal biomass” value in test [2] was “strong antifungal activity only at 50 μM”.
“CGNFLKRTC(CH3)ICVKK [TickCore3-CH3-2 Ox]”: the “fungal growth / dry fungal biomass” value in test [2] is given as “no effect on fungal growth at any of the concentrations tested”. Further, in test [1], the 15-ADON production entry is “did not change significantly” and the DON production entry is “significant increase”.
“C(CH3)GNFLKRTCRICVKK [TickCore3-CH3-1 Ox]”: in test [2], the “fungal growth / dry fungal biomass” value is “no effect on fungal growth at any of the concentrations tested”. In test [1], the 15-ADON levels result is on record as “significant reduction” and the DON levels entry was “significant reduction”.
With “GGYYCPFRQDKCHRHCRSFGRKAGYCGNFLKRTCICVKK (DefMT3) [tick defensin, synthesized by SPPS]”, in test [1], the 15-ADON production entry is “shows inhibitory activity” and the DON production entry is recorded as “shows inhibitory activity”. In test [3], the “antibacterial and antifungal activity” value is “antibacterial and antifungal activity”.
On to “C G N F L K R T C I C V K T (CGNFLKRTCICVKT) [TickCore3-K14T]”, for which the “fungal growth / dry fungal biomass” value in test [2] is “strong antifungal activity only at 50 μM”.
